From publication PMC10743086, “Immunofluorescence-Based Assay for High-Throughput Analysis of Multidrug Resistance Markers in Non-Small Cell Lung Carcinoma Patient-Derived Cells” (Diagnostics, 2023)

What was measured:
Type in all cases: cell-based, human
[1] = tested on: Non-cancer cells (CK8/18-) of patient-derived NSCLC cultures; assay: Cytotoxicity in patient-derived NSCLC cultures, non-cancer cells; settings: 7 days treatment
Method: (§1) Tissue samples were collected during surgery, and the NSCLC diagnosis, histological grade, stage, necrosis, and lymph node invasion status were determined by histopathological analysis. […] The surgical specimens were placed in a sterile tube containing antibiotic-antimycotic solution (Sigma-Aldrich Chemie GmbH, Taufkirchen, Germany) and immediately transported to the research laboratory for further processing.
(§2) Upon arrival, the tissue was manually chopped with a surgical blade in a Petri dish under sterile conditions. The samples were cut into 3–5 mm pieces and further dissociated using the Tumor Dissociation Kit (Miltenyi Biotec, Bergisch Gladbach, Germany). The Tumor Dissociation Kit was used to dissociate the cells from the tumor tissue according to the manufacturer’s instructions. The samples were incubated in a 37 °C orbital shaker (KS 4000 ic control, IKA, Königswinter, Germany) at 300 rpm for 90 min. After incubation, the dissociated tissue was placed in DMEM/Ham’s F12 (1:3 ratio) growth medium supplemented with 5% fetal bovine serum (Corning, NY, USA), antibiotic-antimycotic solution, 4 µg/mL hydrocortisone (Sigma-Aldrich Chemie GmbH, Taufkirchen, Germany), 1 µg/mL insulin (Sigma-Aldrich Chemie GmbH, Taufkirchen, Germany), 10 ng/mL epidermal growth factor (BioLegend, San Diego, CA, USA), and 24 µg/mL adenine (Sigma-Aldrich Chemie GmbH, Taufkirchen, Germany). The DMEM and Ham’s F12 growth media were purchased from Sigma-Aldrich Chemie GmbH (Taufkirchen, Germany).
(§3) The dissociated tissue was cultured in T-25 cell culture flasks until cell attachment was observed before the medium was replaced. If no cell attachment was achieved within 7 days, the sample was discarded. Successful patient-derived cultures were maintained at 37 °C in a humidified atmosphere with 5% CO2 and grown to confluence before undergoing further experiments. […] Partial trypsinization was performed by detaching the fibroblast-like cells with 1 mL of 0.05% trypsin for 1 min at 37 °C, followed by 2 min at room temperature (RT).
(§4) Vinorelbine and pemetrexed were purchased from Selleckchem (Houston, TX, USA). Carboplatin, cisplatin, docetaxel, etoposide, gemcitabine, gefitinib, and paclitaxel were purchased from Sigma-Aldrich Chemie GmbH (Taufkirchen, Germany). The cisplatin, carboplatin, and gemcitabine were dissolved in sterile water, while the etoposide, docetaxel, vinorelbine, paclitaxel, gefitinib, and pemetrexed were dissolved in DMSO and stored at −20 °C. Before treatment, all the stock solutions were freshly diluted in sterile water.
(§5) The primary cells were seeded in black, clear bottom 384-well cell culture microplates (Thermo Fisher Scientific, Waltham, MA, USA) in 50 µL of cell growth medium at a density of 1000 cells per well. The compounds were administered 72 h after seeding. The treatment lasted 7 days.
(§6) The immunofluorescence assay for the quantification of MDR markers was optimized to distinguish cancer cells from stromal cells using a cytokeratin 8/18 (CK8/18) antibody cocktail. The cells were fixed with 4% paraformaldehyde for 20 min at RT and washed three times with PBS using the Wellwash Versa microplate washer (Thermo Fisher Scientific, Waltham, MA, USA). The cells were then blocked with 2% bovine serum albumin (BSA) in PBS for 1 h at RT. […] Co-immunostaining with antibodies against MDR markers was performed to detect the presence of ABCB1, ABCC1, and ABCG2 in both the cancer and stromal cells. […] The secondary antibodies were incubated with the cells at RT for 2 h in the dark. […] Finally, the cells were washed three times with PBS and stored at 4 °C in the dark before imaging.

NCI-H460/R cells = assay: Cytotoxicity by immunofluorescence cell scoring (cell counts), multidrug-resistant NSCLC cell line; settings: 24 h treatment
Text: Human non-small cell lung carcinoma cells (NCI-H460) were purchased from the American Type Culture Collection (Rockville, MD, USA), and normal embryonic lung fibroblasts (MRC-5) were purchased from the European Collection of Authenticated Cell Cultures (Salisbury, UK). Multidrug-resistant NCI-H460/R cells overexpressing ABCB1 were selected from the NCI-H460 cells after selective pressure with doxorubicin [21]. All the cell lines were maintained in MEM medium (Sigma-Aldrich Chemie GmbH, Taufkirchen, Germany) supplemented with 10% FBS, 2 mM L-glutamine, and antibiotic-antimycotic solution. All the cell lines were maintained at 37 °C in a humidified atmosphere with 5% CO2.
as §4
(§7) The compounds were administered 48 h after seeding. The treatment lasted 24 h.
as §6
(§8) The fluorescently labeled cells were imaged using the ImageXpress Pico Automated Cell Imaging System (Molecular Devices, San Jose, CA, USA) with a 4x objective after determining the appropriate exposure time for each illumination filter. Analysis of the obtained images was performed using CellReporterXpress software v. 2.8.2.669 (Molecular Devices). The cytotoxicity of the compounds was determined using the Cell Scoring Analysis Protocol. […] Expression of MDR markers was determined using the Multi-Wavelength Cell Scoring Analysis Protocol.

[2] = tested on: Cancer cells (CK8/18+) of patient-derived NSCLC cultures; assay: Cytotoxicity in patient-derived NSCLC cultures, cancer cells; settings: 7 days treatment
Method: as §1, §2, §3, §4, §5, §6

NCI-H460 cells = assay: Cytotoxicity by immunofluorescence cell scoring (cell counts), NSCLC cell line; settings: 24 h treatment
Method: as §4, §7, §6, §8

[3] = tested on: ABCB1 expression in MRC-5 cells; assay: Immunofluorescence assay of MDR marker ABCB1 expression; settings: five concentrations, 24 h
Method: as §4, §7, §6, §8

[4] = tested on: ABCB1 expression in NCI-H460/R cells; assay: as above; settings: five concentrations, 24 h
Method: as §4, §7, §6, §8

[5] = tested on: ABCB1 expression in NCI-H460 cells; assay: as above; settings: five concentrations, 24 h
Method: as §4, §7, §6, §8

[6] = tested on: ABCG2 expression in cancer cells (CK8/18+); assay: Immunofluorescence assay of ABCG2 expression in patient-derived NSCLC cultures; settings: 7 days
Method: as §1, §2, §3, §4, §5, §6

[7] = NCI-H460/R (co-culture with MRC-5)
[8] = culture TR58, cancer cells (CK8/18+)
[9] = culture TR64, cancer cells (CK8/18+)
[10] = culture TR65, cancer cells (CK8/18+)
[11] = culture TR84, cancer cells (CK8/18+)
[12] = culture TR87, cancer cells (CK8/18+)
[13] = NCI-H460 (co-culture with MRC-5)
[14] = MRC-5 (co-culture with NCI-H460)
[15] = MRC-5 (co-culture with NCI-H460/R)
[16] = Homo sapiens, 168 h, culture TR58, non-cancer cells (CK8/18-)
[17] = Homo sapiens, 168 h, culture TR64, non-cancer cells (CK8/18-)
[18] = Homo sapiens, 168 h, culture TR65, non-cancer cells (CK8/18-)
[19] = Homo sapiens, 168 h, culture TR84, non-cancer cells (CK8/18-)
[20] = Homo sapiens, 168 h, culture TR87, non-cancer cells (CK8/18-)
[21] = Homo sapiens, NCI-H460/R (co-culture with MRC-5)
[22] = Homo sapiens, NCI-H460/R monoculture
[23] = Homo sapiens, 168 h, culture TR58, cancer cells (CK8/18+)
[24] = Homo sapiens, 168 h, culture TR64, cancer cells (CK8/18+)
[25] = Homo sapiens, 168 h, culture TR65, cancer cells (CK8/18+)
[26] = Homo sapiens, 168 h, culture TR84, cancer cells (CK8/18+)
[27] = Homo sapiens, 168 h, culture TR87, cancer cells (CK8/18+)
[28] = Homo sapiens, NCI-H460, 24 h, NCI-H460 (co-culture with MRC-5)
[29] = Homo sapiens, NCI-H460, 24 h, NCI-H460 monoculture

Row | SMILES | ABCB1 Expression [3, 14] | ABCB1 Expression [3, 15] | ABCB1 Expression ([3]; MRC-5 monoculture) | ABCB1 Expression [4, 7] | ABCB1 Expression ([4]; NCI-H460/R monoculture) | ABCB1 Expression [5, 13] | ABCB1 Expression ([5]; NCI-H460 monoculture) | ABCG2 expression [6, 8] | ABCG2 expression [6, 9] | ABCG2 expression [6, 10] | ABCG2 expression [6, 11] | ABCG2 expression [6, 12] | IC50 [1, 16] [µM] | IC50 [1, 17] [µM] | IC50 [1, 18] [µM] | IC50 [1, 19] [µM] | IC50 [1, 20] [µM] | IC50 (NCI-H460/R cells; [21]) [µM] | IC50 (NCI-H460/R cells; [22]) [µM] | IC50 [2, 23] [µM] | further results
1 | N.N.[Cl][Pt][Cl] [Cisplatin, cisplatin] | no change | no change | no change | no change | no change | no change | increase (An increase in ABCB1 expression of at least 20% at a minimum of one concentration is shown in the table.) | increase (An increase in ABCB1, ABCC1, or ABCG2 expression of at least 20% at a minimum of one concentration is shown in the table.) | increase (An increase in ABCB1, ABCC1, or ABCG2 expression of at least 20% at a minimum of one concentration is shown in the table.) | increase (An increase in ABCB1, ABCC1, or ABCG2 expression of at least 20% at a minimum of one concentration is shown in the table.) | increase (An increase in ABCB1, ABCC1, or ABCG2 expression of at least 20% at a minimum of one concentration is shown in the table.) | increase (An increase in ABCB1, ABCC1, or ABCG2 expression of at least 20% at a minimum of one concentration is shown in the table.) | – | – | – | – | – | – | – | – | IC50 ([1]; culture TR58, non-cancer cells (CK8/18-)): 5.1 µM; IC50 ([1]; culture TR64, non-cancer cells (CK8/18-)): 8.26 µM; IC50 ([1]; culture TR65, non-cancer cells (CK8/18-)): 1.21 µM; IC50 ([1]; culture TR84, non-cancer cells (CK8/18-)): 0.789 µM; IC50 ([1]; culture TR87, non-cancer cells (CK8/18-)): 3.38 µM; IC50 (NCI-H460/R cells; [7]): 5.6 µM; IC50 (NCI-H460/R cells; NCI-H460/R monoculture): 5.33 µM; IC50 [2, 8]: 5.78 µM; IC50 [2, 9]: 6.07 µM; IC50 [2, 10]: 14.6 µM; IC50 [2, 11]: 2.11 µM; IC50 [2, 12]: 4.82 µM; IC50 (NCI-H460 cells; [13]): 9.79 µM; IC50 (NCI-H460 cells; NCI-H460 monoculture): 5.71 µM
2 | CC(=O)O[C@@]12CO[C@@H]1C[C@H](O)[C@@]1(C)C(=O)[C@H](O)C3=C(C)[C@@H](OC(=O)[C@H](O)[C@@H](NC(=O)OC(C)(C)C)c4ccccc4)C[C@@](O)([C@@H](OC(=O)c4ccccc4)[C@H]21)C3(C)C [Docetaxel, docetaxel] | no change | no change | no change | no change | no change | increase (An increase in ABCB1 expression of at least 20% at a minimum of one concentration is shown in the table.) | increase (An increase in ABCB1 expression of at least 20% at a minimum of one concentration is shown in the table.) | increase (An increase in ABCB1, ABCC1, or ABCG2 expression of at least 20% at a minimum of one concentration is shown in the table.) | increase (An increase in ABCB1, ABCC1, or ABCG2 expression of at least 20% at a minimum of one concentration is shown in the table.) | no change | increase (An increase in ABCB1, ABCC1, or ABCG2 expression of at least 20% at a minimum of one concentration is shown in the table.) | increase (An increase in ABCB1, ABCC1, or ABCG2 expression of at least 20% at a minimum of one concentration is shown in the table.) | 1.59 | 2.73 | 0.461 | 0.182 | 3.05 | 0.801 | 0.704 | 1.31 | IC50 [2, 24]: 1.56 µM; IC50 [2, 25]: > 5 µM; IC50 [2, 26]: 1.85 µM; IC50 [2, 27]: > 5 µM; IC50 (NCI-H460 cells; [28]): 0.642 µM; IC50 (NCI-H460 cells; [29]): 0.554 µM
3 | COc1cc([C@@H]2c3cc4c(cc3[C@@H](O[C@@H]3O[C@@H]5CO[C@@H](C)O[C@H]5[C@H](O)[C@H]3O)[C@H]3COC(=O)[C@H]23)OCO4)cc(OC)c1O [Etoposide, etoposide] | no change | no change | no change | no change | no change | increase (An increase in ABCB1 expression of at least 20% at a minimum of one concentration is shown in the table.) | increase (An increase in ABCB1 expression of at least 20% at a minimum of one concentration is shown in the table.) | no change | increase (An increase in ABCB1, ABCC1, or ABCG2 expression of at least 20% at a minimum of one concentration is shown in the table.) | increase (An increase in ABCB1, ABCC1, or ABCG2 expression of at least 20% at a minimum of one concentration is shown in the table.) | increase (An increase in ABCB1, ABCC1, or ABCG2 expression of at least 20% at a minimum of one concentration is shown in the table.) | increase (An increase in ABCB1, ABCC1, or ABCG2 expression of at least 20% at a minimum of one concentration is shown in the table.) | 6.49 | 18.1 | 2.08 | 1.01 | 10.2 | 7.5 | 7.92 | 7.13 | IC50 [2, 24]: 11.9 µM; IC50 [2, 25]: 25.4 µM; IC50 [2, 26]: 2.98 µM; IC50 [2, 27]: 13 µM; IC50 (NCI-H460 cells; [28]): 6.07 µM; IC50 (NCI-H460 cells; [29]): 4.81 µM
